Experimental data reported in patent US20240392315A1, “COMPOSITION FOR CELL ADDITION” (priority 2021, published 2024).
Where two headings read alike, the source gives them in different places.

Legend:
HEK293 cells [1] = assay type: cell-based, human
HEK293 cells [2] = conditions: for Full rate / AAV2 particle number: ethanol 0.56 v/v %, AAV2 produced in cells
Method: AAV2 particles (whole particles with and without AAV2 genome) extracted from the culture supernatant and producing cells were measured using a commercially available AAV2 ELISA kit (PROGENE, AAV2 Titration ELISA) and according to the instructions of the kit.
The proportion (Full rate) of AAV2 particles containing the integrated AAV2 genome was calculated from the total number of AAV2 particles quantified by the ELISA method and the quantitative value of particles containing the integrated AAV2 genome obtained from ddPCR.

HEK293 cells [3] = conditions: ethanol amounts where intracellular AAV2 genome titer is higher than control
HEK293 cells [4] = conditions: for culture supernatant genome titer / cell lysate genome titer / cell lysate genome integrity / culture supernatant genome integrity: ethanol 0.28 v/v %; for culture supernatant genome titer: 3 days after transfection
Source text: In the same manner as in Example 1, “1.

AAV2-producing cells = test system: AAV2-producing cells
Method: In order to identify metabolic changes that occurred in AAV2-producing cells when ethanol was added and important factors, intracellular proteins were extracted from cells with and without addition of ethanol during AAV2 production, the extracted proteins were analyzed by liquid chromatography-mass spectrometry (LC-MS) and proteins whose expression increased or decreased during AAV2 production due to the presence or absence of ethanol addition were analyzed.

[5] = 48 and 72 hours after transfection of plasmid DNA for AAV2 production
[6] = 48 hr, protein vs control (no ethanol addition)
[7] = 72 hr, protein vs control (no ethanol addition)
[8] = Downregulated pathway when ethanol was added, time after transfection
[9] = Upregulated pathway when ethanol was added, time after transfection

Method for Hela cells: AAV2 was extracted from the culture supernatant and producing cells and an AAV2 solution was prepared. Three days after adding the AAV2 solution to cultured Hela cells, the number of cells expressing the GFP protein derived from the added AAV2 was measured, and the number of cells infected by the AAV2 solution per mL was calculated.

CC(C)O [Isopropanol, isopropanol]
genome titer (HEK293 cells [1]; test (4), additive 0.61 v/v %, AAV2 in cells, control 2.40E+07): 2.26E+07 vg/μL
genome integrity (HEK293 cells [1]; test (4), additive 0.61 v/v %, AAV2 in cells, control 53.4): 58.5%

CO [Methanol, methanol]
genome titer (HEK293 cells [1]; test (4), additive 0.33 v/v %, AAV2 in cells, control 2.40E+07): 2.94E+07 vg/μL
genome integrity (HEK293 cells [1]; test (4), additive 0.33 v/v %, AAV2 in cells, control 53.4): 58.4%

CCO [ethanol]
rate of incorporation of AAV2-derived genome into the produced AAV2 capsid (HEK293 cells [2]; AAV2 produced with addition of ethanol vs control, Table 3): higher
Full rate (HEK293 cells [2]; test (1), control 2.30): 3.58%
AAV2 particle number (HEK293 cells [2]; test (1), control 9.86E+11): 1.41E+12 particles/mL
AAV2 particle number (HEK293 cells [2]; test (2), control 1.04E+12): 1.13E+12 particles/mL
Full rate (HEK293 cells [2]; test (2), control 3.12): 3.38%
infection titer (infecting cells and expressing GFP per volume of lysate) (Hela cells; AAV2 vector produced with ethanol addition vs control, Table 4): high
infection titer (Hela cells; ethanol 0.56 v/v %, intracellular AAV2 extract, same amount of genome titer, control 1.36E+08): 1.63E+08 ifu/mL
cell proliferation rate during AAV2 production (HEK293 cells [3]): equivalent to or higher than in the control condition
viability of the producing cells on day 3 after transfection (HEK293 cells [3]; FIG. 1C): maintained higher than in the control condition
culture supernatant genome titer (HEK293 cells [4]; AAV1, control 3.34E+06): 5.09E+06 vg/μL
cell lysate genome titer (HEK293 cells [4]; AAV1, control 2.67E+06): 4.67E+06 vg/μL
cell lysate genome integrity (HEK293 cells [4]; AAV1, control 43.3): 54.2%
culture supernatant genome integrity (HEK293 cells [4]; AAV1, control 49.3): 58.6%
culture supernatant genome titer (HEK293 cells [4]; AAV6, control 1.20E+05): 1.08E+05 vg/μL
cell lysate genome titer (HEK293 cells [4]; AAV6, control 1.60E+07): 2.05E+07 vg/μL
culture supernatant genome integrity (HEK293 cells [4]; AAV6, control 23.7): 28.6%
cell lysate genome integrity (HEK293 cells [4]; AAV6, control 51.8): 55.1%
amount of AAV1 produced (genome titer) and genome integrity, in culture supernatant and within cells (HEK293 cells [4]; when ethanol was added): improved
amount of AAV6 produced within cells (genome titer) (HEK293 cells [4]; when ethanol was added): improved
genome integrity of AAV6 in culture supernatant and within cells (HEK293 cells [4]; when ethanol was added): improved
pathway change, CLEAR Signaling Pathway (AAV2-producing cells; [5]): activated
pathway change, Estrogen Receptor Signaling (AAV2-producing cells; [5]): activated
pathway change, Interferon Signaling (AAV2-producing cells; [5]): suppressed
pathway change, NAD Signaling (AAV2-producing cells; [5]): activated
pathway change, Necroptosis Signaling Pathway (AAV2-producing cells; [5]): suppressed
pathway change, Protein Kinase A Signaling (AAV2-producing cells; [5]): activated
pathway change, Role of Hypercytokinemia/hyperchemokinemia in the Pathogenesis of influenza (AAV2-producing cells; [5]): suppressed
pathway change, Superpathway of Cholesterol Biosynthesis (AAV2-producing cells; [5]): activated
Fold Change CAPN5 (AAV2-producing cells; [6]): 2.10
Fold Change DUSP9 (AAV2-producing cells; [6]): −1.30
Fold Change GLUL (AAV2-producing cells; [6]): −1.80
Fold Change GNG2 (AAV2-producing cells; [6]): 1.75
Fold Change GNPTG (AAV2-producing cells; [6]): −1.59
Fold Change H1-4 (AAV2-producing cells; [6]): −1.33
Fold Change HPS5 (AAV2-producing cells; [6]): 100
Fold Change IFI35 (AAV2-producing cells; [6]): 100
Fold Change IFIT1 (AAV2-producing cells; [6]): −1.60
Fold Change IFIT3 (AAV2-producing cells; [6]): −1.73
Fold Change IFITM3 (AAV2-producing cells; [6]): 1.19
Fold Change ISG15 (AAV2-producing cells; [6]): −1.77
Fold Change MED14 (AAV2-producing cells; [6]): 1.16
Fold Change MERTK (AAV2-producing cells; [6]): 1.44
Fold Change MITF (AAV2-producing cells; [6]): −1.33
Fold Change NAGLU (AAV2-producing cells; [6]): 100
Fold Change NGFR (AAV2-producing cells; [6]): 2.60
Fold Change NPRL3 (AAV2-producing cells; [6]): 100
Fold Change PKN (paxillin) (AAV2-producing cells; [6]): −1.31
Fold Change PRKAG2 (AAV2-producing cells; [6]): 100
Fold Change SMAD3 (AAV2-producing cells; [6]): 100
Fold Change TIMM10 (AAV2-producing cells; [6]): −8.00
Fold Change TNIP1 (AAV2-producing cells; [6]): −100
Fold Change TRPM1 (AAV2-producing cells; [6]): −2.58
Fold Change BAX (AAV2-producing cells; [7]): 1.11
Fold Change CAPN5 (AAV2-producing cells; [7]): 1.51
Fold Change CCL5 (AAV2-producing cells; [7]): −1.79
Fold Change DHCR24 (AAV2-producing cells; [7]): −1.03
Fold Change DXO (AAV2-producing cells; [7]): 100
Fold Change FADD (AAV2-producing cells; [7]): 1.54
Fold Change GLUL (AAV2-producing cells; [7]): −1.91
Fold Change GNG2 (AAV2-producing cells; [7]): 1.60
Fold Change HADHA (AAV2-producing cells; [7]): 1.23
Fold Change HADHB (AAV2-producing cells; [7]): 1.29
Fold Change HMGCS1 (AAV2-producing cells; [7]): −1.21
Fold Change HPS5 (AAV2-producing cells; [7]): 100
Fold Change IFI35 (AAV2-producing cells; [7]): −100
Fold Change IFIT1 (AAV2-producing cells; [7]): −1.53
Fold Change IFIT3 (AAV2-producing cells; [7]): −1.51
Fold Change INS (AAV2-producing cells; [7]): 1.58
Fold Change IRE3 (interferon regulatory factor 3) (AAV2-producing cells; [7]): 1.09
Fold Change ISG15 (AAV2-producing cells; [7]): −1.52
Fold Change MED6 (AAV2-producing cells; [7]): −100
Fold Change MED14 (AAV2-producing cells; [7]): 1.07
Fold Change MITF (AAV2-producing cells; [7]): −1.28
Fold Change MSMG1 (methylsterol monooxygenase 1) (AAV2-producing cells; [7]): −1.07
Fold Change MT-CYB (AAV2-producing cells; [7]): 3.49
Fold Change MT-ND4 (AAV2-producing cells; [7]): −1.65
Fold Change NAGLU (AAV2-producing cells; [7]): −1.74
Fold Change NFKB1 (AAV2-producing cells; [7]): 1.07
Fold Change NGFR (AAV2-producing cells; [7]): 2.35
Fold Change NTN1 (AAV2-producing cells; [7]): −1.60
Fold Change POLRZI (RNA polymerase II subunit I) (AAV2-producing cells; [7]): −1.42
Fold Change PPP1R140 (protein phosphatase 1 regulatory inhibitor subunit 14C) (AAV2-producing cells; [7]): −1.29
Fold Change PRKAG2 (AAV2-producing cells; [7]): 100
Fold Change PTPRK (AAV2-producing cells; [7]): −1.31
Fold Change RAF1 (AAV2-producing cells; [7]): −1.29
Fold Change RXRA (AAV2-producing cells; [7]): −1.40
Fold Change SC5D (AAV2-producing cells; [7]): 100
Fold Change SLC29A1 (AAV2-producing cells; [7]): −1.28
Fold Change TIMM10 (AAV2-producing cells; [7]): 1.51
Fold Change TNIP1 (AAV2-producing cells; [7]): −100
Fold Change TOMM6 (AAV2-producing cells; [7]): 1.63
Fold Change TOMM7 (AAV2-producing cells; [7]): −1.40
Fold Change TP53 (AAV2-producing cells; [7]): −1.18
Regulated timing, Interferon Signaling (AAV2-producing cells; [8]): 48 hr, 72 hr
Regulated timing, Necroptosis Signaling Pathway (AAV2-producing cells; [8]): 48 hr, 72 hr
Regulated timing, Role of Hypercytokinemia/hyperchemokinemia in the Pathogenesis of influenza (AAV2-producing cells; [8]): 72 h
Regulated timing, Activation of IRF by Cytosolic Pattern recognition receptors (AAV2-producing cells; Pathway where change was identified when ethanol was added, time after transfection): 72 h
Regulated timing, CLEAR Signaling Pathway (AAV2-producing cells; [9]): 48 hr, 72 hr
Regulated timing, Estrogen Receptor Signaling (AAV2-producing cells; [9]): 72 h
Regulated timing, NAD Signaling (AAV2-producing cells; [9]): 72 h
Regulated timing, Protein Kinase A Signaling (AAV2-producing cells; [9]): 48 hr, 72 hr
Regulated timing, Superpathway of Cholesterol Biosynthesis (AAV2-producing cells; [9]): 72 h
genome titer of AAV2 both in cells and in the culture supernatant (HEK293 cells [1]; ethanol 0.09 to 2.2 V/V %, particularly at not exceeding 1.1 v/v %, vs no ethanol, FIG. 1A, 1B): improved
genome integrity (HEK293 cells [1]; ethanol 0.56 v/v %, intracellular AAV2 extract, control 45.6): 54.7%
genome titer (HEK293 cells [1]; ethanol 0.56 v/v %, intracellular AAV2 extract, ddPCR primer for ITR region, control 4.40E+07): 6.59E+07 vg/μL
percentage of integrated genome in AAV2 in the producing cells (HEK293 cells [1]; ethanol added within the range of about 2v/v %, FIG. 2A): clearly higher
proportion of the integrated genome in AAV2 (HEK293 cells [1]; ethanol addition during AAV2 production, FIG. 2A, 2B): improved
genome titer (HEK293 cells [1]; test (1), ethanol 0.56 v/v %, AAV2 produced in cells, control 2.26E+07): 5.05E+07 vg/μL
genome titer (HEK293 cells [1]; test (2), ethanol 0.56 v/v %, AAV2 produced in cells, control 3.23E+07): 3.81E+07 vg/μL
